Reference: ChEMBL document CHEMBL4715697, “Synthesis and biological activity of benzamide DNA minor groove binders” (2016)

Test system: HOP-92
Experiment: Growth inhibition of human HOP-92 cells assessed as cell growth at 10 uM incubated for 48 hrs by sulforhodamine B assay relative to control
Type: functional
Conditions: read-out: Activity

CC(=O)Nc1cc(CO)cc(NC(=O)c2ccccc2)c1
growth at 10 µM: 96.3%
